{"source": "paper PMC10891067", "about": "“A co-assembly platform engaging macrophage scavenger receptor A for lysosome-targeting protein degradation” (Nature Communications, 2024)", "key": {"RAW264.7 cells": {"test_system": "RAW264.7 cells", "assay": "IL-17A uptake mechanism: endocytic pathway inhibitors, 4 °C, NaN3", "assay_type": "cell-based", "conditions": "RAW264.7, 0.5 μg/ml IL-17A + 50 μM mixed fi-SRAL and fi-17Abp, 6 h; NaN3 100 mM, CPZ 3 μg/ml, Me-β-CD 0.5 mM, EIPA 20 μM", "description": "To evaluate the uptake mechanism of IL-17A, RAW264.7 cells were pretreated with various inhibitors for 30 min at 37 °C: chlorpromazine (clathrin-mediated endocytosis inhibitor, 3 μg/ml), Me-β-cyclodextrin (0.5 mM, lipid rafting pathway inhibitors), EIPA (20 μM, pinocytosis inhibitor). In addition, the cells were cultured at 4 °C or treated with NaN3 (100 mM) to assess the effect of energy on IL-17A uptake. After that, the cells were cultured with fresh medium containing inhibitors at the same concentrations, 50 μM 17Abp and SRAL mixture, and 0.5 μg/ml IL-17A for 6 h. The uptake of the IL-17A by cells was analyzed through flow cytometry according to the procedure mentioned above.\nSupplementary Fig. 5 Uptake of IL-17A by macrophages is an energy-dependent process involving several endocytosis pathways. a) Uptake of IL-17A in RAW264.7 cells incubated at 4 °C or pretreated with 100 mM NaN3 for 0.5 h followed by the addition of 0.5 μg/ml IL-17A and 50 μM mixed fi-SRAL and fi-17Abp peptides for 6 h. b) Uptake of IL-17A in RAW264.7 cells incubated with 0.5 mM Me-β-CD (lipid rafting pathway inhibitor), 20 μM EIPA (pinocytosis inhibitor) or 3 μg/ml CPZ (clathrin-endocytosis inhibitor) for 0.5 h followed by the addition of 0.5 μg/ml IL-17A and 50 μM mixed fi-SRAL and fi-17Abp peptides for 6 h. MFI was determined by flow cytometry and the relative MFI was normalized to the control group. Data are presented as the mean ± SD, and error bars represent the standard deviation of biological replicates (n = 3). P values were determined by one-way ANOVA with Tukey’s multiple comparisons test. […]"}, "IL-17A": {"target": "T1, IL-17A (Mus musculus, UniProt Q62386)", "T1 sequence (Q62386 26-158)": "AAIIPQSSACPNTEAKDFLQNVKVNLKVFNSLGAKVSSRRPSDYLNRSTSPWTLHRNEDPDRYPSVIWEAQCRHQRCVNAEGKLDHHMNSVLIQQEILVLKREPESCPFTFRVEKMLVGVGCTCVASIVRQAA", "assay": "IL-17A protein level in skin lesion (ELISA)", "assay_type": "in vivo", "conditions": "i.p. 7 days: fm-17Abp 15, fm-SRAL 22, 17A-Lytaca 15+22, control-Lytaca 12+22 mg/kg/day, MTX 1 mg/kg/twice day", "description": "Plasma cytokine concentrations of IL-17A, IL-6, IL-22, and CCL-20 were determined by a commercial ELISA kit (Dogesce). For skin IL-17A detection, the back skin of mice was isolated and triturated with a grinder (Tiss-24, Jing Xin). Cell debris was precipitated via centrifugation (1000×g, 4 °C, 15 min), and IL-17A was measured in the supernatant using the IL-17A ELISA kit (Dogesce) and normalized to the total protein concentration, which was determined via BCA assay."}, "[1]": {"test_system": "IMQ-induced psoriasis-like mouse model", "assay": "IMQ-induced psoriasis mouse model: acanthosis (H&E of back skin)", "assay_type": "in vivo", "conditions": "day 7, H&E of back skin, IMQ psoriasis BALB/c mice, i.p. 7 days: fm-17Abp 15, fm-SRAL 22, 17A-Lytaca 15+22, control-Lytaca 12+22 mg/kg/day, MTX 1 mg/kg/twice day", "description": "8 to10-week-old female BALB/c mice were purchased from Peking University Health Science Center Department of Laboratory Animal Science. They were randomly divided into seven groups. Vehicle group (PBS administration) was treated with 62.5 mg/day of Vaseline cream while the other six groups were treated with 62.5 mg/day of 5% IMQ cream (Sichuan Med-shine Pharmaceuticals) on the shaved back skin (2 cm × 3 cm) of mice (days 1–7).\nThe psoriasis area and severity index (PASI) consists of measurements of skin erythema, scale, and thickness. They were scored independently on a scale of 0–4: 0, none; 1, slight; 2, moderate; 3, marked; 4, very marked. The cumulative PASI score was obtained by adding the 3 index scores (scores of 0–12). The thickness of the mouse skin was measured using a micrometer, and the average value was measured three times a day. For histopathology analysis, tissues from the euthanized animals were fixed in formalin and embedded in paraffin. Sections (5 μm thickness) were stained with H&E."}, "PD-L1": {"target": "T2, PD-L1 (Mus musculus, UniProt Q9EP73)", "T2 construct": "endogenous in cells; host or cells: RAW264.7 (WT and SR-A-KO)", "T2 sequence (Q9EP73 19-290)": "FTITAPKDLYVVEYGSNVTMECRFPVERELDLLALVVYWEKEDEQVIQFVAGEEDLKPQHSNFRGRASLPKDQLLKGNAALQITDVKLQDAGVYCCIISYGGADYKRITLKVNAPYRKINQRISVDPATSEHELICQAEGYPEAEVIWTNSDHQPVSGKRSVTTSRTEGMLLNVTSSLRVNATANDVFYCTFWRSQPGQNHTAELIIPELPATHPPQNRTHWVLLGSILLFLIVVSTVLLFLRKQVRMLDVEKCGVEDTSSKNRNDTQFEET", "assay": "Western blot of PD-L1 in RAW264.7 cells", "assay_type": "cell-based", "conditions": "Suppl Fig.18c, 50 μM, PBS = 100", "description": "Proteins were extracted using RIPA buffer (Beyotime) supplemented with protease inhibitors (Beyotime) and quantified using the BCA assay (Solarbio). SDS–PAGE was performed to separate proteins, which were then transferred to PVDF membranes (EMD Millipore). Next, the membranes were blocked in 5% fat-free milk for 2 h and incubated with primary antibodies at 4 °C overnight. including Rabbit anti-GAPDH antibody (1:5000, ab181602, Abcam), Mouse anti-GAPDH antibody (1:5000, 60004-1-Ig, Proteintech), Rabbit anti-CD2O4 antibody (1:1000, ab151707, Abcam), Mouse anti-PD-L1antibody (1:1000, 66248-1-Ig, Proteintech), Mouse anti-His-Tag antibody (1:2000, CW0286, CoWin Biosciences), Phospho-p44/42 MAPK (Erk1/2) (Thr202/Tyr204) (D13.14.4E) XP® Rabbit mAb, (1:1000, 4370T, Cell Signaling Technology), p44/42 MAPK (Erk1/2) (137F5) Rabbit mAb (1:1000 4695T, Cell Signaling Technology). After washing the membranes three times, secondary antibodies including HRP-conjugated Affinipure Goat Anti-Mouse IgG(H + L) (1:5000, SA00001-1, Proteintech), HRP-conjugated Affinipure Goat Anti-Rabbit IgG(H + L) (1:5000, SA00001-2, Proteintech) labeled with horseradish peroxidase (Proteintech) were applied at room temperature for 2 h and the immunoreactivity was visualized by supper ECL western blotting substrate (Coolaber). The densitometric analysis was performed by ImageJ software (NIH)."}, "SR-A": {"target": "T3, SR-A (Mus musculus, UniProt P30204)", "T3 construct": "endogenous in cells; host or cells: RAW264.7", "T3 sequence (P30204 1-458)": "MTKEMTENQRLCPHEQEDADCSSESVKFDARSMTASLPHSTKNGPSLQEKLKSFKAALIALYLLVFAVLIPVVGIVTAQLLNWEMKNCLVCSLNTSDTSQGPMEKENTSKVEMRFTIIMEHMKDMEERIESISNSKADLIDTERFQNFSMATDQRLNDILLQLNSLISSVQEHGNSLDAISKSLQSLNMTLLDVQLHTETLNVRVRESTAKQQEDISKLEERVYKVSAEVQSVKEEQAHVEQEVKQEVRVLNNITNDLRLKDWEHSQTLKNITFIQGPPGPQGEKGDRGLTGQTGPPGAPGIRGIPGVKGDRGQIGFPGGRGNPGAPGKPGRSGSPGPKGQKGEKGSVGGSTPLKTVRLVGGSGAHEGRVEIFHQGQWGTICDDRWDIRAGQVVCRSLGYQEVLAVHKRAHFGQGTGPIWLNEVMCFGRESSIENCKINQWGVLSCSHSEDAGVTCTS", "assay": "SR-A inhibition assay with poly I / poly C (IL-17A uptake)", "assay_type": "cell-based", "conditions": "RAW264.7, with exogenous IL-17A and the peptide mixture", "description": "To verify the involvement of SR-A in the IL-17A endocytosis, RAW264.7 cells were treated with the SR-A inhibitor Poly I or the control Poly C at the indicated concentration together with the 50 μM 17Abp and SRAL mixture and 0.5 μg/ml IL-17A for 6 h. Then, flow cytometry analysis was used to measure the intracellular IL-17A level according to the procedure mentioned above."}}, "note": "Non-standard residues stand in square brackets, D forms with d. Residues, ends and D or L forms follow the SMILES beside them. *: point of attachment. Acetyl(2-naphthyl) = O=C(Cc1ccc2ccccc2c1)*; Ahx = NCCCCCC(=O)O"}
{"compound": "CN(C)CCCN1c2ccccc2Sc2ccc(Cl)cc21", "note": "[CPZ, chlorpromazine]", "values": [{"measurement": "Effect of endocytosis/energy inhibitor on IL-17A uptake (in words)", "setting": "RAW264.7 cells", "value": "significant decreases in cellular fluorescence"}]}
{"compound": "CCN(c1nc(N)c(C(=O)N=C(N)N)nc1Cl)C(C)C", "note": "[EIPA, 5-(N-ethyl-N-isopropyl)-amiloride]", "values": [{"measurement": "Effect of endocytosis/energy inhibitor on IL-17A uptake (in words)", "setting": "RAW264.7 cells", "value": "decreased IL-17A uptake"}]}
{"compound": "CN(Cc1cnc2nc(N)nc(N)c2n1)c1ccc(C(=O)N[C@@H](CCC(=O)O)C(=O)O)cc1", "note": "[MTX, methotrexate]", "values": [{"measurement": "Skin IL-17A", "setting": "IL-17A; day 7, animal 1 of n = 5, IMQ psoriasis BALB/c mice", "value": 60.0538, "unit": "pg/mg protein"}, {"measurement": "Skin IL-17A", "setting": "IL-17A; day 7, animal 2 of n = 5, IMQ psoriasis BALB/c mice", "value": 102.2787, "unit": "pg/mg protein"}, {"measurement": "Skin IL-17A", "setting": "IL-17A; day 7, animal 3 of n = 5, IMQ psoriasis BALB/c mice", "value": 103.0959, "unit": "pg/mg protein"}, {"measurement": "Skin IL-17A", "setting": "IL-17A; day 7, animal 4 of n = 5, IMQ psoriasis BALB/c mice", "value": 57.7792, "unit": "pg/mg protein"}, {"measurement": "Skin IL-17A", "setting": "IL-17A; day 7, animal 5 of n = 5, IMQ psoriasis BALB/c mice", "value": 78.3380, "unit": "pg/mg protein"}, {"measurement": "Acanthosis", "setting": "[1]; animal 1 of n = 5", "value": 66.3, "unit": "μm"}, {"measurement": "Acanthosis", "setting": "[1]; animal 2 of n = 5", "value": 89.8, "unit": "μm"}, {"measurement": "Acanthosis", "setting": "[1]; animal 3 of n = 5", "value": 73.7, "unit": "μm"}, {"measurement": "Acanthosis", "setting": "[1]; animal 4 of n = 5", "value": 59.4, "unit": "μm"}, {"measurement": "Acanthosis", "setting": "[1]; animal 5 of n = 5", "value": 85.7, "unit": "μm"}]}
{"compound": "[N-]=[N+]=[N-].[Na+]", "note": "[NaN3]", "values": [{"measurement": "Effect of endocytosis/energy inhibitor on IL-17A uptake (in words)", "setting": "RAW264.7 cells", "value": "significantly reduced intracellular fluorescence signals of IL-17A"}]}
{"compound": "C[C@H](NC(=O)[C@H](CCC(=O)O)NC(=O)[C@H](C)NC(=O)[C@H](CCC(=O)O)NC(=O)[C@H](C)NC(=O)[C@H](CCC(=O)O)NC(=O)[C@H](C)NC(=O)[C@H](CCC(=O)O)NC(=O)[C@H](C)NC(=O)[C@H](CCC(=O)O)NC(=O)[C@H](C)NC(=O)[C@H](CCC(=O)O)NC(=O)[C@H](C)NC(=O)[C@H](CCC(=O)O)NC(=O)[C@H](C)NC(=O)[C@H](CCC(=O)O)NC(=O)[C@H](C)NC(=O)[C@H](CCC(=O)O)NC(=O)[C@H](C)NC(=O)[C@H](CCC(=O)O)NC(=O)[C@H](C)NC(=O)[C@H](CCC(=O)O)NC(=O)[C@H](C)NC(=O)[C@H](CCC(=O)O)NC(=O)[C@H](C)NC(=O)[C@H](CCC(=O)O)NC(=O)[C@H](C)NC(=O)[C@H](CCC(=O)O)NC(=O)[C@H](C)NC(=O)[C@H](CCC(=O)O)NC(=O)CCCCCNC(=O)[C@H](Cc1ccccc1)NC(=O)[C@H](Cc1ccccc1)NC(=O)Cc1ccc2ccccc2c1)C(N)=O", "note": "[nf-SRAL] ({Acetyl(2-naphthyl)}-FF[Ahx]EAEAEAEAEAEAEAEAEAEAEAEAEAEAEA-NH2)", "values": [{"measurement": "Relative intensity of PD-L1", "setting": "PD-L1; replicate 1", "value": 96}, {"measurement": "Relative intensity of PD-L1", "setting": "PD-L1; replicate 2", "value": 106}, {"measurement": "Relative intensity of PD-L1", "setting": "PD-L1; replicate 3", "value": 102}]}
{"compound": "methyl-β-cyclodextrin [Me-β-CD]", "values": [{"measurement": "Effect of endocytosis/energy inhibitor on IL-17A uptake (in words)", "setting": "RAW264.7 cells", "value": "significant decreases in cellular fluorescence"}]}
{"compound": "polycytidylic acid [Poly C]", "values": [{"measurement": "Effect on IL-17A uptake efficiency (in words)", "setting": "SR-A", "value": "no discernible impact"}]}
{"compound": "polyinosinic acid [Poly I]", "values": [{"measurement": "Effect on IL-17A uptake efficiency (in words)", "setting": "SR-A", "value": "concentration-dependent inhibition"}]}
